Columns and labels:
human 5-HT4(b) receptor [1] = target: T1, human 5-HT4(b) receptor (Homo sapiens, UniProt Q13639); assay: cAMP formation in transiently transfected COS-7 cells (flashplate assay); type: cell-based; conditions: 5-HT4 variant b, n = 8, cAMP formation
T1 construct: expressed in transfected cells; host or cells: COS-7 cells, transient transfection with a pcDNA3 construct
Procedure: (§1) Results represent the increase of cAMP after stimulation by agonist since basal level has been removed. […] The efficacy and potency of the different agonists to trigger the cellular response was estimated and compared for the three different variants.
(§2) These experiments were done using the NEN adenylyl cyclase activation flashplate assay, according to the supplier. Cells were removed from the Petri dishes with 3 ml EDTA (0.04% w/v) and resuspended with phosphate buffered saline without Ca^2+ and Mg^2+. The cells were centrifuged at 1500 g for 5 minutes and the supernatants were removed. The pellet was resuspend in stimulation buffer and diluted to a concentration of 10^6 cells/ml, 50 μl thereof were added per well of the flashplate (50000 cells/well). Compounds were diluted in PBS containing 1 mM pargyline and 1 mM paroxetine, and 50 μl of the resulting mixture was added per well, followed by an incubation for 20 minutes at 370° C. […] After incubation for 24 h at room temperature, counting was done in a Topcount (Packard).

human 5-HT4(a) receptor [2] = target: T2, human 5-HT4(a) receptor (Homo sapiens, UniProt Q13639); assay: as above; type: cell-based; conditions: 5-HT4 variant a, n = 5, cAMP formation
T2 construct: expressed in transfected cells; host or cells: COS-7 cells, transient transfection with a pcDNA3 construct
Procedure: as §1, §2

human 5-HT4(h) receptor [3] = target: T3, human 5-HT4(h) receptor (Homo sapiens, UniProt Q13639); assay: as above; type: cell-based; set-up: expressed in transfected cells; host or cells: COS-7 cells, transient transfection with 5-HT4(h)/pcDNA3
Procedure: as §1, §2

[4] = test system: COS-7 cells transfected with the empty vector; assay: cAMP assay, negative control cells; type: cell-based; conditions: stimulation with 10^−6 M of each agonist
Text: as §1, with “variants. […] No difference in the pEC50 was noticed. The cAMP assay has been performed also for COS-7 cells transfected with the empty vector as a negative control.” for “variants.”
These experiments were done using the NEN adenylyl cyclase activation flashplate assay, according to the supplier. Cells were removed from the Petri dishes with 3 ml EDTA (0.04% w/v) and resuspended with phosphate buffered saline without Ca^2+ and Mg^2+. The cells were centrifuged at 1500 g for 5 minutes and the supernatants were removed. The pellet was resuspend in stimulation buffer and diluted to a concentration of 10^6 cells/ml, 50 μl thereof were added per well of the flashplate (50000 cells/well). Compounds were diluted in PBS containing 1 mM pargyline and 1 mM paroxetine, and 50 μl of the resulting mixture was added per well, followed by an incubation for 20 minutes at […]. […] The experiment was stopped and a direct cAMP[^125I] detection assay was performed by adding 100 μl of detection mix per well. After incubation for 24 h at room temperature, counting was done in a Topcount (Packard).

human 5-HT4(h) receptor [5] = target: T3, human 5-HT4(h) receptor; assay: Competition with […] [3H]GR113808 binding, membranes of transfected COS-7 cells; conditions: for pKi: Human 5-HT4 h receptor in Cos-7 cells, Cheng and Prusoff
human 5-HT4(b) receptor [6] = target: T1, human 5-HT4(b) receptor; assay: as above; conditions: for pKi / Ki: Human 5-HT4 b receptor in Cos-7 cells, Cheng and Prusoff
human 5-HT4(a) receptor [7] = target: T2, human 5-HT4(a) receptor; assay: as above; conditions: for pKi / Ki: Human 5-HT4 a receptor in Cos-7 cells, Cheng and Prusoff
5-HT4(a) variant = target: T4, 5-HT4(a) variant (Homo sapiens, UniProt Q13639); assay: Radioligand saturation binding, membranes of transfected COS-7 cells
T4 construct: expressed in transfected cells; host or cells: COS-7 cells, transient transfection with a pcDNA3 construct
Text: (§3) In order to compare the pharmacological properties of the 5-HT4(h) variant with those of the previously cloned 5-HT4(a) and b variant, the three corresponding pcDNA3 expression constructs were transiently transfected into COS cells. The receptors were investigated by radioligand binding assays on membrane preparations.

h 5-HT4(h) = target: T5, h 5-HT4(h) (Homo sapiens, UniProt Q13639); assay: as above; conditions: h variant, 3 independent transfections
T5 construct: expressed in transfected cells; host or cells: COS-7 cells, transient transfection with 5-HT4(h)/pcDNA3
Text: as §3

5-HT4(b) variant = target: T6, 5-HT4(b) variant (Homo sapiens, UniProt Q13639); assay: as above
T6 construct: expressed in transfected cells; host or cells: COS-7 cells, transient transfection with a pcDNA3 construct
Text: as §3

[8] = test system: COS-7 cells transfected with the vector alone; assay: Radioligand binding, negative control cells; conditions: 3 independent transfections
Text: The same result was obtained for the Bmax values found for the high affinity sites of the 2 reference 5-HT receptor variants a and b. […] Results are the mean of three independent transfections.

[9] = 5-HT4 variant h, n = 3, cAMP formation

T2 sequence (Q13639 1-387 isoform Q13639-2): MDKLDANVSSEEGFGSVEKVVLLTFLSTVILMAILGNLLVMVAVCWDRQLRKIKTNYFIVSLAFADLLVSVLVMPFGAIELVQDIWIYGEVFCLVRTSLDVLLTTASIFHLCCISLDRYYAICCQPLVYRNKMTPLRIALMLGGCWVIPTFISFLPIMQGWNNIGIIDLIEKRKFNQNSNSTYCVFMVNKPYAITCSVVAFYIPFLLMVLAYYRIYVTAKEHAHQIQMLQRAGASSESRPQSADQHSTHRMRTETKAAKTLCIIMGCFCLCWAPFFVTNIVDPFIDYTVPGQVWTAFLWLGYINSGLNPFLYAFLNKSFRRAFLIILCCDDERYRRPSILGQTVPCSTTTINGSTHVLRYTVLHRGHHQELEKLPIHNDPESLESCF
T3 sequence (Q13639 1-402 isoform Q13639-6): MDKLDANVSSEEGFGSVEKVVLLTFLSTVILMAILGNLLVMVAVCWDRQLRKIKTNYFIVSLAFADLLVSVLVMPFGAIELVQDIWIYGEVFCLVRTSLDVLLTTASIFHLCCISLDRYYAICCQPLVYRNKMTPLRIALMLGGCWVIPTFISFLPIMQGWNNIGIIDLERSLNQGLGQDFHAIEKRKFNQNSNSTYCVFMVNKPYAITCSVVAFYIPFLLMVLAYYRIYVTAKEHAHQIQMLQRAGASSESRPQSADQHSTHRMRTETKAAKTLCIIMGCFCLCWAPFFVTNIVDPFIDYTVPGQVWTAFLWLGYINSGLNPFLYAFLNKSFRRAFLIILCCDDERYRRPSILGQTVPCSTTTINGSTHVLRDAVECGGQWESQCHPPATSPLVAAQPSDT
T1 sequence (Q13639 whole entry): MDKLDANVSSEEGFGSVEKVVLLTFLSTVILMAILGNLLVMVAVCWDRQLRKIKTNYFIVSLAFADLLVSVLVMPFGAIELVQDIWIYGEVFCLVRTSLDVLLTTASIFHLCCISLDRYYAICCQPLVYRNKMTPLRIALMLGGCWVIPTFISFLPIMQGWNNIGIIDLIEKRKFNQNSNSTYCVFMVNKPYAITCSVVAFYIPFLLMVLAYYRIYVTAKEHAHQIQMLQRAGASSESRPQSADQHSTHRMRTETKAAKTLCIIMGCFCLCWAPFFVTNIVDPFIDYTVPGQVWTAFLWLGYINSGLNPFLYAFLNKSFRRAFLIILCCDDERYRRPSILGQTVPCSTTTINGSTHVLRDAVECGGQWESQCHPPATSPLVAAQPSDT
T4 sequence (Q13639 1-387 isoform Q13639-2): as the sequence (Q13639 1-387 isoform Q13639-2) above
T5 sequence (Q13639 1-402 isoform Q13639-6): as the sequence (Q13639 1-402 isoform Q13639-6) above

NCCc1c[nH]c2ccc(O)cc12 [5HT, 5-hydroxytryptamine]
% of 5HT max (+/− SD) (human 5-HT4(b) receptor [1]): 100% | % of 5HT max (+/− SD) (human 5-HT4(a) receptor [2]): 100% | % of 5HT max (+/− SD) (human 5-HT4(h) receptor [3]; [9]): 100% | increase of the cAMP basal level [4]: no significant increase

CCCCN1CCC(COC(=O)c2cc(Cl)c(N)c3c2OCCO3)CC1 [SB204070]
pKi (human 5-HT4(h) receptor [5]): 10.38 | pKi (human 5-HT4(b) receptor [6]): 10.04 | pKi (human 5-HT4(a) receptor [7]): 10.15

COc1ccc2[nH]cc(CCN)c2c1 [5-MeOT]
pKi (human 5-HT4(h) receptor [5]): 6.1 | pKi (human 5-HT4(b) receptor [6]): 6.13 | pKi (human 5-HT4(a) receptor [7]): 6.08

Cn1cc(C(=O)OCC2CCN(CCNS(C)(=O)=O)CC2)c2ccccc21 [[^3H]GR113808]
Kd (5-HT4(a) variant): 0.14 nM | Kd (h 5-HT4(h)): 0.24 nM | Kd (5-HT4(b) variant): 0.19 nM | specific binding [8]: no specific binding

Cn1cc(C(=O)OCC2CCN(CCNS(C)(=O)=O)CC2)c2ccccc21 [GR113808]
pKi (human 5-HT4(h) receptor [5]): 9.29 | pKi (human 5-HT4(b) receptor [6]): 9.57 | % of 5HT max (+/− SD) (human 5-HT4(b) receptor [1]): 0% | % of 5HT max (+/− SD) (human 5-HT4(a) receptor [2]): 0% | % of 5HT max (+/− SD) (human 5-HT4(h) receptor [3]; [9]): 54.6% | pEC50 (+/1 SD) (human 5-HT4(h) receptor [3]; [9]): 7.95 | effect at the 5-HT4(h) variant (agonist/antagonist) (human 5-HT4(h) receptor [3]; in words): agonistic effect | pKi (human 5-HT4(a) receptor [7]): 9.54

CCOc1cc(N)c(Cl)cc1C(=O)NCC1CN(Cc2ccc(F)cc2)CCO1 (stereo not drawn) [Mosapride]
IC50 (human 5-HT4(h) receptor [5]): 282 nM | Ki (human 5-HT4(h) receptor [5]): 141 nM | IC50 (human 5-HT4(b) receptor [6]): 912 nM | Ki (human 5-HT4(b) receptor [6]): 661 nM | IC50 (human 5-HT4(a) receptor [7]): 331 nM | Ki (human 5-HT4(a) receptor [7]): 195 nM

COc1cc(N)c(Cl)cc1C(=O)NC1CCN(CCCOc2ccc(F)cc2)CC1OC (stereo not drawn) [Cisapride]
increase of the cAMP basal level [4]: no significant increase

COCCCN1CCC(NC(=O)c2cc(Cl)c(N)c3c2OCC3)CC1 [Prucalopride]
% of 5HT max (+/− SD) (human 5-HT4(b) receptor [1]): 117.36% | % of 5HT max (+/− SD) (human 5-HT4(a) receptor [2]): 118% | % of 5HT max (+/− SD) (human 5-HT4(h) receptor [3]; [9]): 95% | increase of the cAMP basal level [4]: no significant increase

CCCCCNC(=N)N/N=C/c1c[nH]c2ccc(OC)cc12 [SDZ-HTF919]
IC50 (human 5-HT4(h) receptor [5]): 35.5 nM | Ki (human 5-HT4(h) receptor [5]): 25.7 nM | IC50 (human 5-HT4(b) receptor [6]): 12.9 nM | Ki (human 5-HT4(b) receptor [6]): 8.13 nM | IC50 (human 5-HT4(a) receptor [7]): 8.32 nM | Ki (human 5-HT4(a) receptor [7]): 13.8 nM
